Measured values taken from ChEMBL document CHEMBL4177591, “Synthesis and evaluation of the inhibitory activity of the four stereoisomers of the potent and selective human γ-glutamyl transpeptidase inhibitor GGsTop” (Bioorg Med Chem Lett, 2017).
The source made the active and inactive calls. The calls are words filed in the database; no cut-off is given here.

Columns and labels:
Homo sapiens [1] = organism: Homo sapiens; assay: Inhibition of human GGT assessed as inactivation rate constant using gamma-Glu-AMC as substrate measured for 10 mins by fluorescence assay
Homo sapiens [2] = organism: Homo sapiens; assay: Inhibition of human GGT at 0.1 mM using gamma-Glu-AMC as substrate measured for 10 mins by fluorescence assay

SMILES | inhibition (Homo sapiens [1]) | K (Homo sapiens [2]) [M⁻¹ s⁻¹] | further results
CO[P@@](=O)(CC[C@@H](N)C(=O)O)Oc1cccc(CC(=O)O)c1 | inactive | – | –
CO[P@](=O)(CC[C@@H](N)C(=O)O)Oc1cccc(CC(=O)O)c1 | – | 21.5 | –
CO[P@@](=O)(CC[C@H](N)C(=O)O)Oc1cccc(CC(=O)O)c1 | inactive | – | –
COP(=O)(CCC(N)C(=O)O)Oc1cccc(CC(=O)O)c1 (stereo not given) | – | – | K (Homo sapiens [1]): 51 M⁻¹ s⁻¹
CO[P@](=O)(CC[C@H](N)C(=O)O)Oc1cccc(CC(=O)O)c1 | – | 174 | –
